Measurements taken from patent US9115137B2, “2,3,4,5-tetrahydro-1H-pyrido[4,3-B]indole compounds and methods of use thereof” (priority 2008, dated 2015).

Tests used:
[1] = biological target: T1, human recombinant dopamine D2L receptor (Homo sapiens, UniProt P14416); test: Dopamine D2L radioligand binding ([3H]Spiperone); details: compound at 1 μM; CHO cells; read-out: Dopamine (1 μM) D2L, percent inhibition of specific binding
T1 construct: expressed in transfected cells; host or cells: CHO cells
T1 sequence (P14416 whole entry): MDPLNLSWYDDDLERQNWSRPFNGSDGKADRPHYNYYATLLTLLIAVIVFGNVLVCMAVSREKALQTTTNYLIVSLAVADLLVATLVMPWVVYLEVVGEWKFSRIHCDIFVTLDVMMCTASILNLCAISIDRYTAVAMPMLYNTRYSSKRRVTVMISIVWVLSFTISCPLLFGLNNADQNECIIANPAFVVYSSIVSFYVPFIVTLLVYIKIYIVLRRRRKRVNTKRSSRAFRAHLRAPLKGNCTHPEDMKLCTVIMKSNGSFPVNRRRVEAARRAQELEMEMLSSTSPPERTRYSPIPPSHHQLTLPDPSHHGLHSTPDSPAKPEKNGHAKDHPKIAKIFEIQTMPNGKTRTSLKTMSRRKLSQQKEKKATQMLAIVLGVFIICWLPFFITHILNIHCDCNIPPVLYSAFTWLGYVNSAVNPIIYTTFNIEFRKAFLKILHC
How it was run: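 CHO cells expressing the receptor, in 50 mM Tris-HCl pH 7.4 with 1.4 mM ascorbic acid, 0.001% BSA, 150 mM NaCl; 0.16 nM [3H]spiperone, 120 min at 25° C, nonspecific binding with 10 μM haloperidol.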

[2] = biological target: T2, human recombinant serotonin (5-Hydroxytryptamine) 5-HT2C receptor (Homo sapiens, UniProt P28335); test: Serotonin 5-HT2C radioligand binding ([3H]Mesulergine); details: compound at 1 μM; CHO-K1 cells; read-out: Serotonin (1 μM) 5-HT2C, percent inhibition of specific binding
T2 construct: expressed in transfected cells; host or cells: CHO-K1 cells
T2 sequence (P28335 33-458): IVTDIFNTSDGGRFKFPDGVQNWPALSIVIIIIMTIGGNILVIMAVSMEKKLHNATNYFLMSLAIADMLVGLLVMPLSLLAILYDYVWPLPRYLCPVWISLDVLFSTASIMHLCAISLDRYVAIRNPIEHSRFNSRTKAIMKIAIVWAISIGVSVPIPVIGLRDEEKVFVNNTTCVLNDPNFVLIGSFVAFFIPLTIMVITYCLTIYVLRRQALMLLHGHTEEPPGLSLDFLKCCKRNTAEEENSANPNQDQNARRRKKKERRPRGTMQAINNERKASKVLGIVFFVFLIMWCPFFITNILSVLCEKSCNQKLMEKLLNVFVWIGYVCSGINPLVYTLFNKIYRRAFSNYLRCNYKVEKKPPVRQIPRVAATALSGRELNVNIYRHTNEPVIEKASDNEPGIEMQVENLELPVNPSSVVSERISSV
How it was run: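 Membranes from CHO-K1 cells expressing the human receptor were incubated 60 min at 25 °C with 1 nM [3H]mesulergine in 50 mM Tris-HCl pH 7.4 with ascorbic acid and pargyline; 1 μM mianserin defined non-specific binding.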

[3] = biological target: T3, human recombinant adrenergic α2B receptor (Homo sapiens, UniProt P18089); test: Adrenergic α2B radioligand binding ([3H]Rauwolscine); details: compound at 1 μM; CHO-K1 cells; read-out: Adrenergic (1 μM) α2B, percent inhibition of specific binding
T3 construct: expressed in transfected cells; host or cells: CHO-K1 cells
T3 sequence (P18089 1-450): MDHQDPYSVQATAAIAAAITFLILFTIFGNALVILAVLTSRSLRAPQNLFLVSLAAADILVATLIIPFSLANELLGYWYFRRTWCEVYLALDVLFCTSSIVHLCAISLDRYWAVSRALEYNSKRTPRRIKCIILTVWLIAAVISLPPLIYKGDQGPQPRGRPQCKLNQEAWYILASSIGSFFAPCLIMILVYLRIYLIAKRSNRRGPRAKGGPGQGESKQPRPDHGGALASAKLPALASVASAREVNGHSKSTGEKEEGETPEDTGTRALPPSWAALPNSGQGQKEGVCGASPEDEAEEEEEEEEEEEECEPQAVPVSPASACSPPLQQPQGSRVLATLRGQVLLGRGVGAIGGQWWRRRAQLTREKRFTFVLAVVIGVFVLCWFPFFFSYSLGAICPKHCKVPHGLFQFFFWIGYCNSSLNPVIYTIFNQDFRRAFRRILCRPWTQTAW
How it was run: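 CHO-K1 membranes expressing the receptor were incubated with test compounds (1 μM or lower, 1% DMSO) and 2.5 nM [3H]Rauwolscine for 60 min at 25° C in Tris-HCl pH 7.4 with MgCl2, EDTA and BSA. Bound radioactivity was filtered and counted; nonspecific binding was defined with 10 μM Prazosin, giving percent inhibition of specific binding.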

[4] = biological target: T4, human recombinant histamine H1 receptor (Homo sapiens, UniProt P35367); test: Histamine H1 radioligand binding ([3H]Pyrilamine); details: compound at 1 μM; CHO cells; read-out: Histamine Binding (1 μM) H1, percent inhibition of specific binding
T4 construct: expressed in transfected cells; host or cells: CHO cells
T4 sequence (P35367 whole entry): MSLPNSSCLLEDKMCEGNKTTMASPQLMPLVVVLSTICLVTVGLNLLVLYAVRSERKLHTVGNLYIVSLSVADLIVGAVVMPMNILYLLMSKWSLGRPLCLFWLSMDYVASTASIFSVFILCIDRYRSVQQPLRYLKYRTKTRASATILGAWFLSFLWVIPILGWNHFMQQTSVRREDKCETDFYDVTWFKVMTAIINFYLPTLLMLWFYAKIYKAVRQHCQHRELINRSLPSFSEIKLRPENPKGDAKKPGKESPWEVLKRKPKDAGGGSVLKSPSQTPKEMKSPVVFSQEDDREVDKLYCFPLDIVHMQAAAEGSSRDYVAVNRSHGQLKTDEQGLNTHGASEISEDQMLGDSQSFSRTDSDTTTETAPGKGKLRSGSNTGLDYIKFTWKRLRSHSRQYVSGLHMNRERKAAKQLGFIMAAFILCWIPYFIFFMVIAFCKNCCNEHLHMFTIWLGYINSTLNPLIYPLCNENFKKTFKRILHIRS
How it was run: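 Recombinant human H1 receptor expressed in CHO cells, in Tris-HCl pH 7.4 with MgCl2, NaCl and sucrose, incubated with 1.2 nM [3H]pyrilamine for 180 min at 25 °C; non-specific binding defined with 1 μM pyrilamine. Compounds tested at 1 μM in 1% DMSO; filter-bound counts give percent inhibition of specific binding.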

Structure (SMILES) | inhibition at 1 µM [1] [%] | inhibition at 1 µM [2] [%] | inhibition at 1 µM [3] [%] | inhibition at 1 µM [4] [%]
Cc1ccc2c(c1)c1c(n2CCNC(=O)C(C)C)CCN(C)C1 [Compound 61, N-(2-(1,2,3,4-tetrahydro-2,8-dimethylpyrido[4,3-b]indol-5-yl)ethyl)isobutyramide] | -3 | 27 | 70 | 32
Cc1ccc2c(c1)c1c(n2CCNC(=O)C2CCCCC2)CCN(C)C1 [Compound 62, N-(2-(1,2,3,4-tetrahydro-2,8-dimethylpyrido[4,3-b]indol-5-yl)ethyl)cyclohexanecarboxamide] | 5 | 54 | 92 | 63
Cc1ccc2c(c1)c1c(n2CCNC(=O)c2ccc(F)cc2Cl)CCN(C)C1 [Compound 63, 2-chloro-4-fluoro-N-(2-(1,2,3,4-tetrahydro-2,8-dimethylpyrido[4,3-b]indol-5-yl)ethyl)benzamide] | 7 | 72 | 98 | 86
Cc1ccc2c(c1)c1c(n2CC(N)=O)CCN(C)C1 [Compound 64, 2-(1,2,3,4-tetrahydro-2,8-dimethylpyrido[4,3-b]indol-5-yl)acetamide] | 2 | 45 | 40 | 62
Cc1ccc2c(c1)c1c(n2CCNC(=O)C2CCNCC2)CCN(C)C1 [Compound 65, N-(2-(1,2,3,4-tetrahydro-2,8-dimethylpyrido[4,3-b]indol-5-yl)ethyl)piperidine-4-carboxamide] | 7 | 24 | 12 | 34
Cc1ccc2c(c1)c1c(n2CCNC(=O)c2ccc(F)cc2)CCN(C)C1 [Compound 66, 4-fluoro-N-(2-(1,2,3,4-tetrahydro-2,8-dimethylpyrido[4,3-b]indol-5-yl)ethyl)benzamide] | -2 | 93 | 107 | 66
CN1CCc2c(c3cc(Cl)ccc3n2CCC(N)=O)C1 [Compound 67, 3-(8-chloro-1,2,3,4-tetrahydro-2-methylpyrido[4,3-b]indol-5-yl)propanamide] | -1 | 65 | 72 | 70
Cc1ccc2c(c1)c1c(n2CCNC(=O)C2CCCC2)CCN(C)C1 [Compound 68, N-(2-(1,2,3,4-tetrahydro-2,8-dimethylpyrido[4,3-b]indol-5-yl)ethyl)cyclopentanecarboxamide] | 1 | 40 | 84 | 58
Cc1ccc2c(c1)c1c(n2CCNC(=O)c2ccncc2C)CCN(C)C1 [Compound 69, N-(2-(1,2,3,4-tetrahydro-2,8-dimethylpyrido[4,3-b]indol-5-yl)ethyl)-3-methylpyridine-4-carboxamide] | 4 | 24 | 39 | 88
Cc1ccc2c(c1)c1c(n2C2CCCCC2O)CCN(C)C1 (stereo not shown) [Compound 73, 2-(1,2,3,4-tetrahydro-2,8-dimethylpyrido[4,3-b]indol-5-yl)cyclohexanol] | -3 | 52 | -2 | 2
